Results published in patent publication US20110086759A1, “CHEMICAL COMPOUNDS” (SYNGENTA CROP PROTECTION, INC., priority 2007, published 2011).

Tests used:
Assay type in all cases: in vivo
[1] = tested on: Echinochloa crus-galli (ECHCG); experiment: Pre-emergence biological efficacy, glasshouse pot test; settings: 312 h, pre-emergence, 1,000 g/ha, evaluated after 13 days (100=total damage; 0=no damage), read-out: Percentage damage ECHCG
Description: (§1) Seeds of Alopecurus myosuroides (ALOMY), Setaria faberi (SETFA), Echinochloa crus-galli (ECHCG), Solanum nigrum (SOLNI), Amaranthus retoflexus (AMARE) and Ipomea hederaceae (IPOHE) were sown in standard soil in pots. After cultivation for one day under controlled conditions in a glasshouse (at 24/16° C., day/night; 14 hours light; 65% humidity), the plants were sprayed with an aqueous spray solution derived from the formulation of the technical active ingredient in acetone/water (50:50) solution containing 0.5% Tween 20 (polyoxyethelyene sorbitan monolaurate, CAS RN 9005-64-5) to give a final dose of 1000 or 250 g/ha of test compound.
(§2) The test plants were then grown under controlled conditions in the glasshouse (at 24/16° C., day/night; 14 hours light; 65% humidity) and watered twice daily. After 13 days the test was evaluated (100=total damage to plant; 0=no damage to plant).

[2] = tested on: Ipomea hederaceae (IPOHE); experiment: as above; settings: Ipomoea hederacea, 312 h; pre-emergence, 1,000 g/ha, evaluated after 13 days (100=total damage; 0=no damage); read-out: Percentage damage IPOHE
Description: as §1, §2

[3] = tested on: Alopecurus myosuroides (ALOMY); experiment: as above; settings: 312 h, pre-emergence, 1,000 g/ha, evaluated after 13 days (100=total damage; 0=no damage), read-out: Percentage damage ALOMY
Description: as §1, §2

[4] = tested on: Amaranthus retoflexus (AMARE); experiment: as above; settings: Amaranthus retroflexus, 312 h; pre-emergence, 1,000 g/ha, evaluated after 13 days (100=total damage; 0=no damage); read-out: Percentage damage AMARE
Description: as §1, §2

Setaria faberi (SETFA) [5] = experiment: as above; settings: 312 h, pre-emergence, 1,000 g/ha, evaluated after 13 days (100=total damage; 0=no damage), read-out: Percentage damage SETFA
Description: as §1, §2

Solanum nigrum (SOLNI) [6] = experiment: as above; settings: 312 h, pre-emergence, 1,000 g/ha, evaluated after 13 days (100=total damage; 0=no damage), read-out: Percentage damage SOLNI
Description: as §1, §2

[7] = tested on: Echinochloa crus-galli (ECHCG); experiment: Post-emergence biological efficacy, glasshouse pot test; settings: 312 h, post-emergence, 1,000 g/ha, evaluated after 13 days (100=total damage; 0=no damage), read-out: Percentage damage caused to weed species, ECHCG
In short: (§3)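 Pot-grown weeds were sprayed 8 days after sowing with test compound in acetone/water (50:50) with 0.5% Tween 20 at 1000 or 250 g/ha. Glasshouse at 24/16° C day/night, 14 h light, 65% humidity. Damage scored 0-100 (100 = total damage) after 13 days.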

[8] = tested on: Ipomea hederaceae (IPOHE); experiment: as above; settings: Ipomoea hederacea, 312 h; post-emergence, 1,000 g/ha, evaluated after 13 days (100=total damage; 0=no damage); read-out: Percentage damage caused to weed species, IPOHE
In short: as §3

[9] = tested on: Alopecurus myosuroides (ALOMY); experiment: as above; settings: 312 h, post-emergence, 1,000 g/ha, evaluated after 13 days (100=total damage; 0=no damage), read-out: Percentage damage caused to weed species, ALOMY
In short: as §3

[10] = tested on: Amaranthus retoflexus (AMARE); experiment: as above; settings: Amaranthus retroflexus, 312 h; post-emergence, 1,000 g/ha, evaluated after 13 days (100=total damage; 0=no damage); read-out: Percentage damage caused to weed species, AMARE
In short: as §3

Setaria faberi (SETFA) [11] = experiment: as above; settings: 312 h, post-emergence, 1,000 g/ha, evaluated after 13 days (100=total damage; 0=no damage), read-out: Percentage damage caused to weed species, SETFA
In short: as §3

Solanum nigrum (SOLNI) [12] = experiment: as above; settings: 312 h, post-emergence, 1,000 g/ha, evaluated after 13 days (100=total damage; 0=no damage), read-out: Percentage damage caused to weed species, SOLNI
In short: as §3

Row | Structure (SMILES) | pest or weed control at 1000 g/ha [1] [%] | pest or weed control at 1000 g/ha [2] [%] | pest or weed control at 1000 g/ha [3] [%] | pest or weed control at 1000 g/ha [4] [%] | pest or weed control at 1000 g/ha (Setaria faberi (SETFA) [5]) [%] | pest or weed control at 1000 g/ha (Solanum nigrum (SOLNI) [6]) [%] | pest or weed control at 1000 g/ha [7] [%] | pest or weed control at 1000 g/ha [8] [%] | pest or weed control at 1000 g/ha [9] [%] | pest or weed control at 1000 g/ha [10] [%] | pest or weed control at 1000 g/ha (Setaria faberi (SETFA) [11]) [%] | pest or weed control at 1000 g/ha (Solanum nigrum (SOLNI) [12]) [%]
1 | O=C(O)c1nc(C2CC2)nc(NC2CC2)c1Cl [Compound 1-1, 5-Chloro-2-cyclopropyl-4-cyclopropylamino-pyrimidine-6-carboxylic acid] | 20 | 90 | 20 | 100 | 0 | 90 | 40 | 80 | 40 | 100 | 80 | 90
2 | O=C(O)c1nc(C2CC2)nc(NC2CCCC2)c1Cl [Compound 1-33, 5-Chloro-2-cyclopropyl-4-cyclopentylamino-pyrimidine-6-carboxylic acid] | 30 | 70 | 30 | 80 | 50 | 80 | 20 | 70 | 30 | 100 | 80 | 80
3 | O=C(O)c1nc(C2CC2)nc(NC2CCCCC2)c1Cl [Compound 1-35, 5-Chloro-4-cyclohexylamino-2-cyclopropyl-pyrimidine-6-carboxylic acid] | 10 | 0 | 10 | 50 | 0 | 20 | 10 | 50 | 10 | 50 | 0 | 30
4 | O=C(O)c1nc(C2CC2)nc(NCc2ccccc2)c1Cl [Compound 1-60, 5-Chloro-2-cyclopropyl-4-phenylmethyamino pyrimidtne-6-carboxylic acid] | 20 | 100 | 20 | 90 | 0 | 90 | 70 | 100 | 50 | 100 | 90 | 90
5 | O=C(O)c1nc(C2CC2)nc(NCc2ccc(F)cc2)c1Cl [Compound 1-66, 5-Chloro-2-cyclopropyl-4-(4-fluorophenylmethyl-amino)pyrimidine-6-carboxylic acid] | 10 | 90 | 10 | 50 | 10 | 60 | 50 | 80 | 10 | 100 | 80 | 90
6 | Cc1ccc(CNc2nc(C3CC3)nc(C(=O)O)c2Cl)cc1 [Compound 1-73, 5-Chloro-2-cyclo-propyl-4-(4-methyl-phenylmethyl-amino)pyrimidine-6-carboxylic acid] | 10 | 60 | 10 | 70 | 30 | 80 | 30 | 80 | 10 | 100 | 50 | 80
7 | O=C(O)c1nc(C2CC2)nc(NCc2c(Cl)cccc2Cl)c1Cl [Compound 1-104, 5-Chloro-2-cyclopropyl-4-(2,6-dichlorophenyl-methylamino)-pyrimidine-6-carboxylic acid] | 0 | 0 | 0 | 0 | 0 | 0 | 0 | 60 | 0 | 60 | 0 | 50
8 | COc1ccc(CNc2nc(C3CC3)nc(C(=O)O)c2Cl)c(OC)c1 [Compound 1-110, 5-Chloro-2-cyclopropyl-4-(2,4-dimethoxyphenyl-methylamino)-pyrimidine-6-carboxylic acid] | 20 | 90 | 40 | 100 | 30 | 60 | 50 | 80 | 30 | 100 | 80 | 80
9 | Cc1ccc(CNc2nc(C3CC3)nc(C(=O)O)c2Cl)o1 [Compound 1-135, 5-Chloro-2-cyclopropyl-4-(5-methylfuran-2-ylmethylamino)-pyrimidine-6-carboxylic acid] | 90 | 100 | 80 | 100 | 90 | 100 | 70 | 100 | 80 | 100 | 80 | 100
10 | Cc1cccnc1CNc1nc(C2CC2)nc(C(=O)O)c1Cl [Compound 1-153, 5-Chloro-2-cyclopropyl-4-(3-methylpyridin-2-ylmethylamino)-pyrimidine-6-carboxylic acid] | 50 | 100 | 40 | 100 | 70 | 90 | 60 | 70 | 50 | 100 | 90 | 90
11 | CC(Nc1nc(C2CC2)nc(C(=O)O)c1Cl)c1ccc(Cl)cc1 (stereo not drawn) [Compound 1-176, 5-Chloro-4-[1-(4-chlorophenyl)ethyl-amino]-2-cyclopropyl-pyrimidine-6-carboxylic acid] | 0 | 0 | 0 | 0 | 0 | 0 | 10 | 40 | 10 | 40 | 20 | 60
